Tests used:
Format in all cases: biochemical
Human plasma kallikrein = Human plasma kallikrein (Homo sapiens (Human), UniProt P03952); test: Determination of the IC50 for plasma kallikrein; conditions: read-out: IC50 (human PKal)
Description: Determination of the IC50 for Plasma Kallikrein
(§1) Human plasma kallikrein (Protogen) was incubated at 25° C. with the fluorogenic substrate H-DPro-Phe-Arg-AFC and various concentrations of the test compound. Residual enzyme activity (initial rate of reaction) was determined by measuring the change in […] at 410 nm and the IC50 value for the test compound was determined.

Human KLK1 = Human KLK1 (Homo sapiens (Human), UniProt P06870); test: Determination of the IC50 for KLK1; conditions: human KLK1, 25° C., substrate H-DVal-Leu-Arg-AFC
Sequence of Human KLK1 (P06870 25-262): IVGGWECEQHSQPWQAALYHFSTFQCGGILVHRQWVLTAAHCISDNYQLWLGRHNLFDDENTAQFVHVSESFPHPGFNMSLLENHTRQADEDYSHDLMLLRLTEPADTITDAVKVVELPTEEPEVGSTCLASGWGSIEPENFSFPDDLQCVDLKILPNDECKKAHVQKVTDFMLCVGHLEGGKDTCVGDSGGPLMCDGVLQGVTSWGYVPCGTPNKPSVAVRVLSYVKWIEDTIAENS
Description: Determination of the IC50 for KLK1
as §1, with “KLK1 (Callbiochem)” for “plasma kallikrein (Protogen)”, “H-DVal-Leu-Arg-AFC” for “H-DPro-Phe-Arg-AFC”

Human FXIa = Human FXIa (Homo sapiens (Human), UniProt P03951); test: Determination of the % inhibition for FXIa; conditions: 40 μM of the test compound, human FXIa, 25° C.; read-out: % Inhibition @ 40 μM (human FXIa)
Sequence of Human FXIa (P03951 388-625 limits assumed): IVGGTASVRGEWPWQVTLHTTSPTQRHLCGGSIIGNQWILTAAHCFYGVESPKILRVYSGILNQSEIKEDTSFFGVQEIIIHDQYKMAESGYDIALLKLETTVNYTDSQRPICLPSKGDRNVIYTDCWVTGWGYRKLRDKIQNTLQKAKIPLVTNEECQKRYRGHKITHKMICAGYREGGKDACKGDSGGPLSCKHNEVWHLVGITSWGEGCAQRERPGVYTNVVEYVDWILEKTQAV
Sequence of Human FXIa (P03951 19-387 partner limits assumed): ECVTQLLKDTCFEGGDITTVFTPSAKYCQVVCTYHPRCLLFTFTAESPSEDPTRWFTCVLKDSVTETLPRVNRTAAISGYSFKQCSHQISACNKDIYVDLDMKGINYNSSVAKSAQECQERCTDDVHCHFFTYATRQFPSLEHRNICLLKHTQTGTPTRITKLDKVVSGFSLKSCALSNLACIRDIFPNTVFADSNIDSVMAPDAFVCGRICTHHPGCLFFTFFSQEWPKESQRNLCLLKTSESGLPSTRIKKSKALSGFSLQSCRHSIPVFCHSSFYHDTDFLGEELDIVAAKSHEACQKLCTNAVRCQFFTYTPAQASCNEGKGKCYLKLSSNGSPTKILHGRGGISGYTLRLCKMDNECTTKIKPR
Description: Determination of the % Inhibition for FXIa
Human FXIa (Enzyme Research Laboratories) was incubated at 25° C. with the fluorogenic substrate Z-Gly-Pro-Arg-AFC and 40 μM of the test compound. Residual enzyme activity (initial rate of reaction) was determined by measuring the change in […].

Sequence of Human plasma kallikrein (P03952 391-638): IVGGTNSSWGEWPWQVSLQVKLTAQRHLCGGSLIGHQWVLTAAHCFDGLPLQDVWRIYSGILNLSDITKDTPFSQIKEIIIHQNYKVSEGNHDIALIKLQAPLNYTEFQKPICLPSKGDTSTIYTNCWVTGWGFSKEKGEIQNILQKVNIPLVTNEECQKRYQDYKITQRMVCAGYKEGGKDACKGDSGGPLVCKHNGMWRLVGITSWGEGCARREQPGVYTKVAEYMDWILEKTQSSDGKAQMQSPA
Sequence of Human plasma kallikrein (P03952 20-390 partner): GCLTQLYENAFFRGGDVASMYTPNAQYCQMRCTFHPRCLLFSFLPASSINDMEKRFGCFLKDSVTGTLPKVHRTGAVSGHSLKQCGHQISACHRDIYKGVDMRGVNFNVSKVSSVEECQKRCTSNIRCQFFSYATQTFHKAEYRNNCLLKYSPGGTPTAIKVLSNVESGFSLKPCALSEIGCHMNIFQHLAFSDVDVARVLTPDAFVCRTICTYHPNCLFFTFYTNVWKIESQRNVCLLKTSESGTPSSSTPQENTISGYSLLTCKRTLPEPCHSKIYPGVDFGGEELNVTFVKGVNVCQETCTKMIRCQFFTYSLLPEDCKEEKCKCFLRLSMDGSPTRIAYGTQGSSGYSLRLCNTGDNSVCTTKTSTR

Row | IC50 (Human plasma kallikrein) [µM] | IC50 (Human KLK1) [µM] | inhibition at 40 µM (Human FXIa) [%] | Structure (SMILES)
1 | 0.0133 | > 40 | – | CC(CNC(=O)c1cn(Cc2ccc(Cn3ccccc3=O)cc2)nc1N)Oc1cccc(Cl)c1 (racemic) [Example 118, 3-amino-N-[(2R/S)-2-(3-chlorophenoxy)propyl]-1-({4-[(2-oxopyridin-1-yl)methyl]phenyl}methyl)pyrazole-4-carboxamide]
2 | 0.0029 | > 10 | 2 | Nc1nn(Cc2ccc(Cn3ccccc3=O)cc2)cc1C(=O)NCCOc1cccc(Cl)c1 [Example 1]
3 | 0.0602 | > 10 | 0 | Nc1nn(Cc2ccc(Cn3ccccc3=O)cc2)cc1C(=O)NCC(=O)Nc1cccc(Cl)c1 [Example 2]
4 | 5.53 | > 10 | 0 | Nc1nn(Cc2ccc(Cn3ccccc3=O)cc2)cc1C(=O)NCC(=O)Nc1ccccc1Cl [Example 3, 2-{[3-amino-1-({4-[(2-oxopyridin-1-yl)methyl]phenyl}methyl)pyrazol-4-yl]formamido}-N-(2-chlorophenyl)acetamide]
5 | > 10 | > 10 | – | Nc1nn(Cc2ccc(Cn3ccccc3=O)cc2)cc1C(=O)NCC(=O)Nc1ccc(Cl)cc1 [Example 4, 2-{[3-amino-1-({4-[(2-oxopyridin-1-yl)methyl]phenyl}methyl)pyrazol-4-yl]formamido}-N-(4-chlorophenyl)acetamide]
6 | > 10 | > 10 | – | COCc1nn(Cc2ccc(Cn3ccccc3=O)cc2)cc1C(=O)NCCOc1cc(Cl)cc(OC)c1 [Example 11, N-[2-(3-chloro-5-methoxyphenoxy)ethyl]-3-(methoxymethyl)-1-({4-[(2-oxopyridin-1-yl)methyl]phenyl}methyl)pyrazole-4-carboxamide]
7 | 0.0065 | > 40 | – | N#Cc1nn(Cc2ccc(Cn3ccccc3=O)cc2)cc1C(=O)NCCOc1cccc(Cl)c1 [Example 38, N-[2-(3-chlorophenoxy)ethyl]-3-cyano-1-({4-[(2-oxopyridin-1-yl)methyl]phenyl}methyl)pyrazole-4-carboxamide]
8 | 0.0163 | > 40 | – | Cc1nn(Cc2ccc(Cn3ccccc3=O)cc2)cc1C(=O)NCCOc1cccc(Cl)c1 [Example 39, N-[2-(3-chlorophenoxy)ethyl]-3-methyl-1-({4-[(2-oxopyridin-1-yl)methyl]phenyl}methyl)pyrazole-4-carboxamide]
9 | 0.077 | > 10 | – | Cc1nc(C(=O)NCCOc2cccc(Cl)c2)cn1Cc1ccc(Cn2ccccc2=O)cc1 [Example 43, N-[2-(3-chlorophenoxy)ethyl]-2-methyl-1-({4-[(2-oxopyridin-1-yl)methyl]phenyl}methyl)imidazole-4-carboxamide]
10 | > 10 | > 40 | – | Nc1c(C(=O)NCCOc2cccc(Cl)c2)cnn1Cc1ccc2[nH]ncc2c1 [Example 44, 5-amino-N-[2-(3-chlorophenoxy)ethyl]-1-(1H-indazol-5-ylmethyl)pyrazole-4-carboxamide]
11 | 6.25 | > 40 | – | Nc1c(C(=O)NCCOc2cccc(Cl)c2)cnn1Cc1ccc(C(=O)N2CCCC2)cc1 [Example 45, 5-amino-N-[2-(3-chlorophenoxy)ethyl]-1-({4-[(pyrrolidin-1-yl)carbonyl]phenyl}methyl)pyrazole-4-carboxamide]
12 | > 10 | > 10 | – | COCc1nn(Cc2ccc(Cn3ccccc3=O)cc2)cc1C(=O)NCCOc1cc(Cl)cnn1 [Example 46, N-{2-[(5-chloropyridazin-3-yl)oxy]ethyl}-3-(methoxymethyl)-1-({4-[(2-oxopyridin-1-yl)methyl]phenyl}methyl)pyrazole-4-carboxamide]
13 | > 10 | > 40 | – | CN(C)C(=O)c1ccc(Cn2cc(C(=O)NCCOc3cccc(Cl)c3)c(N)n2)cc1 [Example 59, 3-amino-N-[2-(3-chlorophenoxy)ethyl]-1-{[4-(dimethylcarbamoyl)phenyl]methyl}pyrazole-4-carboxamide]
14 | > 10 | > 40 | – | Nc1nn(Cc2ccc(C(=O)N3CCCCC3)cc2)cc1C(=O)NCCOc1cccc(Cl)c1 [Example 60, 3-amino-N-[2-(3-chlorophenoxy)ethyl]-1-({4-[(piperidin-1-yl)carbonyl]phenyl}methyl)pyrazole-4-carboxamide]
15 | > 10 | > 40 | – | CNC(=O)c1cccc(Cn2cc(C(=O)NCCOc3cccc(Cl)c3)c(N)n2)c1 [Example 64, 3-amino-N-[2-(3-chlorophenoxy)ethyl]-1-{[3-(methylcarbamoyl)phenyl]methyl}pyrazole-4-carboxamide]
16 | > 10 | > 40 | – | CN(C)C(=O)c1cccc(Cn2cc(C(=O)NCCOc3cccc(Cl)c3)c(N)n2)c1 [Example 65, 3-amino-N-[2-(3-chlorophenoxy)ethyl]-1-{[3-(dimethylcarbamoyl)phenyl]methyl}pyrazole-4-carboxamide]
17 | > 10 | > 40 | – | CN(CC(=O)O)c1cc(Cn2cc(C(=O)NCCOc3cccc(Cl)c3)c(N)n2)ccn1 [Example 67, ({4-[(3-amino-4-{[2-(3-chlorophenoxy)ethyl]carbamoyl}pyrazol-1-yl)methyl]pyridin-2-yl}(methyl)amino)acetic acid]
18 | > 10 | > 40 | – | Nc1nn(Cc2cccc(Cl)n2)cc1C(=O)NCCOc1cccc(Cl)c1 [Example 81, 3-amino-N-[2-(3-chlorophenoxy)ethyl]-1-[(6-chloropyridin-2-yl)methyl]pyrazole-4-carboxamide]
19 | 3.14 | > 40 | – | Nc1nn(Cc2ccnc(N3CCCC3=O)c2)cc1C(=O)NCCOc1cccc(Cl)c1 [Example 94, 3-amino-N-[2-(3-chlorophenoxy)ethyl]-1-{[2-(2-oxopyrrolidin-1-yl)pyridin-4-yl]methyl}pyrazole-4-carboxamide]
20 | 1.9 | > 40 | – | Cc1nc2cc(Cn3cc(C(=O)NCCOc4cccc(Cl)c4)c(N)n3)ccc2n1C [Example 95, 3-amino-N-[2-(3-chlorophenoxy)ethyl]-1-[(1,2-dimethyl-1,3-benzodiazol-5-yl)methyl]pyrazole-4-carboxamide]
21 | 2.23 | > 40 | – | Nc1nn(Cc2ccc(N3CCCC3=O)nc2)cc1C(=O)NCCOc1cccc(Cl)c1 [Example 96, 3-amino-N-[2-(3-chlorophenoxy)ethyl]-1-{[6-(2-oxopyrrolidin-1-yl)pyridin-3-yl]methyl}pyrazole-4-carboxamide]
22 | 1.13 | > 40 | – | Nc1nn(Cc2ccc(-c3cccnc3)nc2)cc1C(=O)NCCOc1cccc(Cl)c1 [Example 97, 3-amino-N-[2-(3-chlorophenoxy)ethyl]-1-{[6-(pyridin-3-yl)pyridin-3-yl]methyl}pyrazole-4-carboxamide]
23 | 0.0094 | > 40 | – | COc1cc(Cn2cc(C(=O)NCCOc3cccc(Cl)c3)c(N)n2)ccc1Cn1ccccc1=O [Example 98, 3-amino-N-[2-(3-chlorophenoxy)ethyl]-1-({3-methoxy-4-[(2-oxopyridin-1-yl)methyl]phenyl}methyl)pyrazole-4-carboxamide]
24 | 2.07 | > 40 | – | Nc1nn(Cc2ccc(Cn3c(F)cccc3=O)cc2)cc1C(=O)NCCOc1cccc(Cl)c1 [Example 99, 3-amino-N-[2-(3-chlorophenoxy)ethyl]-1-({4-[(2-fluoro-6-oxopyridin-1-yl)methyl]phenyl}methyl)pyrazole-4-carboxamide]
25 | 0.0062 | > 40 | – | Nc1nn(Cc2ccc(Cn3cc(F)ccc3=O)cc2)cc1C(=O)NCCOc1cccc(Cl)c1 [Example 100, 3-amino-N-[2-(3-chlorophenoxy)ethyl]-1-({4-[(5-fluoro-2-oxopyridin-1-yl)methyl]phenyl}methyl)pyrazole-4-carboxamide]
26 | 0.0076 | > 40 | – | Nc1nn(Cc2ccc(Cn3ccccc3=O)cc2F)cc1C(=O)NCCOc1cccc(Cl)c1 [Example 101, 3-amino-N-[2-(3-chlorophenoxy)ethyl]-1-({2-fluoro-4-[(2-oxopyridin-1-yl)methyl]phenyl}methyl)pyrazole-4-carboxamide]
27 | 0.0721 | > 40 | – | Nc1nn(Cc2ccc(Cn3ccccc3=O)cn2)cc1C(=O)NCCOc1cccc(Cl)c1 [Example 102, 3-amino-N-[2-(3-chlorophenoxy)ethyl]-1-({5-[(2-oxopyridin-1-yl)methyl]pyridin-2-yl}methyl)pyrazole-4-carboxamide]
28 | > 10 | > 40 | – | Cc1nn(Cc2ccc(Cn3ccccc3=O)cc2)c(C)c1C(=O)NCCOc1cccc(Cl)c1 [Example 103, N-[2-(3-chlorophenoxy)ethyl]-3,5-dimethyl-1-({4-[(2-oxopyridin-1-yl)methyl]phenyl}methyl)pyrazole-4-carboxamide]
29 | 0.413 | > 40 | – | COCc1nn(Cc2ccc(Cn3ccc(C)cc3=O)cc2)cc1C(=O)NCCOc1cccc(Cl)c1 [Example 104, N-[2-(3-chlorophenoxy)ethyl]-3-(methoxymethyl)-1-({4-[(4-methyl-2-oxopyridin-1-yl)methyl]phenyl}methyl)pyrazole-4-carboxamide]

Row | Structure (SMILES) | IC50 (Human plasma kallikrein) [µM] | IC50 (Human KLK1) [µM] | inhibition at 40 µM (Human FXIa) [%]
30 | Nc1nn(Cc2cccc(C(=O)O)c2)cc1C(=O)NCCOc1cccc(Cl)c1 [Example 63, 3-[(3-amino-4-{[2-(3-chlorophenoxy)ethyl]carbamoyl}pyrazol-1-yl)methyl]benzoic acid] | > 10 | > 40 | –

— patent publication US10781181B2, “N-((het) arylmethyl)-heteroaryl-carboxamides compounds as plasma kallikrein inhibitors” (Kalvista Pharmaceuticals Limited, priority 2014, dated 2020)
